Where a SMILES comes first, the peptide text is derived from it. The star is where a group is joined. Octyl = CCCCCCCC*
test system: normal chow-fed C57BL/6J male mice; experiment: Effect on food intake in normal mice (HM-2 automated monitoring); type: in vivo, mouse; conditions: 300 nmol/kg s.c. once, light phase 0-6 h, modified protocol (food access re-opened 2 h after dosing)
Description: Normal chow-fed C57BL/6J male mice were used. The mice were kept in an automated food- and water-intake monitoring system (HM-2) which allows automated on-line measurements of accumulated food intake (FI) and other parameters. Food intake was monitored by the HM-2 system up to 24 h after dosing. The mice were kept 6 per cage, and each dosing group consisted of 6 animals.
In the initial experimental set-up with ghrelin as test compound, animals were allowed free access to food directly after treatment, and the resulting data for food intake are shown in FIG. 1A herein (vide infra).
In order to further investigate the “duration of action” of ghrelin and the other test compounds a new protocol was defined. In the modified protocol the gate to the food chambers was closed prior to dosing with vehicle or test compound and was re-opened 2 hours thereafter. The resulting data for food intake following dosing with ghrelin or vehicle are summarized in FIG. 1B (vide infra), while the corresponding data for food intake following dosing with each of the of the other four test compounds. (Compound 16, 22, 23 or 43 of the invention) or with vehicle are summarized in FIG. 2A (data for monitoring up to 6 hours after dosing) and FIG. 2B (data for monitoring up to 24 hours after dosing).

In order of rising “Accumulated FI at 6h” value:
1. CCCCCCCCCCCCCCCC(=O)N[C@@H](CCC(=O)NCCCC[C@H](NC(=O)[C@H](CO)NC(=O)[C@H](CCC(=O)O)NC(=O)[C@H](CCCCN)NC(=O)[C@H](CCCNC(=N)N)NC(=O)[C@H](CCC(N)=O)NC(=O)[C@H](CCC(N)=O)NC(=O)[C@@H](NC(=O)[C@H](CCCNC(=N)N)NC(=O)[C@H](CCC(N)=O)NC(=O)[C@H](Cc1c[nH]cn1)NC(=O)[C@H](CCC(=O)O)NC(=O)[C@@H]1CCCN1C(=O)[C@H](CO)NC(=O)[C@H](CC(C)C)NC(=O)[C@H](Cc1ccccc1)NC(=O)[C@H](COCCCCCCCC)NC(=O)[C@H](CO)NC(=O)[C@@H]1CCCN1)C(C)C)C(=O)N[C@@H](CCCCN)C(=O)N1CCC[C@H]1C(=O)N1CCC[C@H]1C(=O)N[C@@H](C)C(=O)N[C@@H](CCCCN)C(=O)N[C@@H](CC(C)C)C(=O)N[C@@H](CCC(N)=O)C(=O)N1CCC[C@H]1C(=O)N[C@@H](CCCNC(=N)N)C(N)=O)C(=O)O [Compound 43]  0.37 ± 0.14 g
2. CCCCCCCCOC[C@H](NC(=O)[C@H](CO)NC(=O)[C@@H]1CCCN1)C(=O)N[C@@H](Cc1ccccc1)C(=O)N[C@@H](CC(C)C)C(=O)N[C@@H](CO)C(=O)N1CCC[C@H]1C(=O)N[C@@H](CCC(=O)O)C(=O)N[C@@H](Cc1c[nH]cn1)C(=O)N[C@@H](CO)C(=O)N[C@@H](CCCNC(=N)N)C(=O)N[C@H](C(=O)N[C@@H](CO)C(=O)N[C@@H](CO)C(=O)N[C@@H](CCCNC(=N)N)C(=O)N[C@@H](CCCCN)C(=O)N[C@@H](CCC(=O)O)C(=O)N[C@@H](CO)C(=O)N[C@@H](CO)C(=O)N[C@@H](CCCCN)C(=O)N1CCC[C@H]1C(=O)N1CCC[C@H]1C(=O)N[C@@H](C)C(=O)N[C@@H](CCCCN)C(=O)N[C@@H](CC(C)C)C(=O)N[C@@H](CO)C(=O)N1CCC[C@H]1C(=O)N[C@@H](CCCNC(=N)N)C(N)=O)C(C)C [Compound 45] (H-PSS(Octyl)FLSPEHSRVSSRKESSKPPAKLSPR-NH2)  0.38 ± 0.13 g
3. CCCCCCCCOC[C@H](NC(=O)[C@H](CO)NC(=O)[C@@H]1CCCN1)C(=O)N[C@@H](Cc1ccccc1)C(=O)N[C@@H](CC(C)C)C(=O)N[C@@H](CO)C(=O)N1CCC[C@H]1C(=O)N[C@@H](CCC(=O)O)C(=O)N[C@@H](Cc1c[nH]cn1)C(=O)N[C@@H](CO)C(=O)N[C@@H](CCCNC(=N)N)C(=O)N[C@H](C(=O)N[C@@H](CO)C(=O)N[C@@H](CO)C(=O)N[C@@H](CCCNC(=N)N)C(=O)N1CCC[C@H]1C(=O)N[C@@H](CCC(=O)O)C(=O)N[C@@H](CO)C(=O)N[C@@H](CO)C(=O)N[C@@H](CO)C(=O)N1CCC[C@H]1C(=O)N1CCC[C@H]1C(=O)N[C@@H](C)C(=O)N[C@@H](CCCCN)C(=O)N[C@@H](CC(C)C)C(=O)N[C@@H](CO)C(=O)N1CCC[C@H]1C(=O)N[C@@H](CCCNC(=N)N)C(N)=O)C(C)C [Compound 49] (H-PSS(Octyl)FLSPEHSRVSSRPESSSPPAKLSPR-NH2)  0.6 ± 0.09 g
4. CCCCCCCCOC[C@H](NC(=O)[C@H](CO)NC(=O)[C@@H]1CCCN1)C(=O)N[C@@H](Cc1ccccc1)C(=O)N[C@@H](CC(C)C)C(=O)N[C@@H](CO)C(=O)N1CCC[C@H]1C(=O)N[C@@H](CCC(=O)O)C(=O)N[C@@H](Cc1c[nH]cn1)C(=O)N[C@@H](CO)C(=O)N[C@@H](CCCNC(=N)N)C(=O)N[C@H](C(=O)N[C@@H](CO)C(=O)N[C@@H](CO)C(=O)N[C@@H](CCCNC(=N)N)C(=O)N[C@@H](CCCCN)C(=O)N[C@@H](CCC(=O)O)C(=O)N[C@@H](CO)C(=O)N[C@@H](CCCCN)C(=O)N[C@@H](CO)C(=O)N1CCC[C@H]1C(=O)N1CCC[C@H]1C(=O)N[C@@H](C)C(=O)N[C@@H](CCCCN)C(=O)N[C@@H](CC(C)C)C(=O)N[C@@H](CO)C(=O)N1CCC[C@H]1C(=O)N[C@@H](CCCNC(=N)N)C(N)=O)C(C)C [Compound 46] (H-PSS(Octyl)FLSPEHSRVSSRKESKSPPAKLSPR-NH2)  1.68 ± 0.2 g

Source: patent US9657062B2, “Ghrelin analogues” (Zealand Pharma A/S, priority 2012, dated 2017)
